Experimental data: patent US20210269451A1, “PYRIDINYL HETEROCYCLYL COMPOUNDS FOR THE TREATMENT OF AUTOIMMUNE DISEASE” (Hoffmann-La Roche Inc., priority 2018, published 2021)
pIC50: −log10 of the molar value.

Tests used:
hERG channel = molecular target: T1, hERG channel (Homo sapiens, UniProt Q12809); assay: hERG channel inhibition assay (patch-clamp, CHOhERG cells); format: cell-based; conditions: safety ratio;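 as to hERG IC20/TLR7 IC50: ratio above 30 indicates an adequate safety window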;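 as to hERG IC20/TLR8 IC50: ratio above 30 indicates an adequate safety window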
T1 construct: expressed in transfected cells; host or cells: CHO (Chinese hamster ovary), CHOhERG
T1 sequence (Q12809 whole entry): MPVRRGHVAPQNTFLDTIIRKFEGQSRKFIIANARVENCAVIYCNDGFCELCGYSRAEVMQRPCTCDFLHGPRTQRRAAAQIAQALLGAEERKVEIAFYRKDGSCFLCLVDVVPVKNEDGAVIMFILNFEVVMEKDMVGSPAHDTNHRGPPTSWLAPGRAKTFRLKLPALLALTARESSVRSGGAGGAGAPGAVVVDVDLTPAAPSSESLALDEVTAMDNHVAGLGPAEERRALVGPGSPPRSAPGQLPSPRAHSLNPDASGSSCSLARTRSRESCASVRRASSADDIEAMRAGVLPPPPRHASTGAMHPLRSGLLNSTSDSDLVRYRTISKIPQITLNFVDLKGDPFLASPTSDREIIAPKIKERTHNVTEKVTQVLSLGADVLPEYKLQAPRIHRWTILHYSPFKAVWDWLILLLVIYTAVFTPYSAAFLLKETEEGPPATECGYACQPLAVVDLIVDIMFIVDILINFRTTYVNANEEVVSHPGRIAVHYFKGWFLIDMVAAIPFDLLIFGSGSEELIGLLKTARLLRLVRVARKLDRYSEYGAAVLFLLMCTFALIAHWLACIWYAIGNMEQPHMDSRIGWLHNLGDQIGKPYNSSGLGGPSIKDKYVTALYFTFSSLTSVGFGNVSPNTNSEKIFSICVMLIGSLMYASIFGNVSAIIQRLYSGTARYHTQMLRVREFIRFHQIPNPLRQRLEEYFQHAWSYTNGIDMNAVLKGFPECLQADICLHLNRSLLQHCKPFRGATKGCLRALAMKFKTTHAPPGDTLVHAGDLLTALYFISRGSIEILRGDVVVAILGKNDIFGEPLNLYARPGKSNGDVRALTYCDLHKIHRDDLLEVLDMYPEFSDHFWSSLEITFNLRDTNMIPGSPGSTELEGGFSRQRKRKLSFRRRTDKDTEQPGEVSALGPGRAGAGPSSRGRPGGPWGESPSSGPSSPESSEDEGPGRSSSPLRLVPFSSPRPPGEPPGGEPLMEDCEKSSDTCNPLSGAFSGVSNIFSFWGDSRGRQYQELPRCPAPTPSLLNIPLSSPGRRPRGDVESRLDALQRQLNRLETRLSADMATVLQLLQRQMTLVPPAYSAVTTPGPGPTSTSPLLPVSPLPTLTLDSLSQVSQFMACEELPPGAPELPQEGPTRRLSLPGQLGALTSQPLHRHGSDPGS
Protocol: hERG channel inhibition assay:
The hERG K^+ channels were cloned in humans and stably expressed in a CHO (Chinese hamster ovary) cell line. CHOhERG cells were used for patch-clamp (voltage-clamp, whole-cell) experiments. Cells were stimulated by a voltage pattern to activate hERG channels and conduct IKhERG currents (rapid delayed outward rectifier potassium current of the hERG channel). After the cells were stabilized for a few minutes, the amplitude and kinetics of IKhERG were recorded at a stimulation frequency of 0.1 Hz (6 bpm). Thereafter, the test compound was added to the preparation at increasing concentrations. For each concentration, an attempt was made to reach a steady-state effect, usually, this was achieved within 3-10 min at which time the next highest concentration was applied. The amplitude and kinetics of IKhERG are recorded in each concentration of the drug which were compared to the control values (taken as 100%). (references: Redfern W S, Carlsson L, Davis A S, Lynch W G, MacKenzie I, Palethorpe S, Siegl P K, Strang I, Sullivan A T, Wallis R, Camm A J, Hammond T G. 2003; Relationships between preclinical cardiac electrophysiology, clinical QT interval prolongation and torsade de pointes for a broad range of drugs: evidence for a provisional safety margin in drug development. Cardiovasc. Res. 58:32-45, Sanguinetti M C, Tristani-Firouzi M. 2006; hERG potassium channels and cardiac arrhythmia. Nature 440:463-469, Webster R, Leishman D, Walker D. 2002; Towards a drug concentration effect relationship for QT prolongation and torsades de pointes. Curr. Opin. Drug Discov. Devel. 5:116-26).

hTLR9 = molecular target: T2, hTLR9 (Homo sapiens, UniProt Q9NR96); set-up: host or cells: HEK; conditions: disclosed in US20150105370; read-out: HEK/hTLR9 IC50; cited from earlier work
T2 sequence (Q9NR96 26-1032): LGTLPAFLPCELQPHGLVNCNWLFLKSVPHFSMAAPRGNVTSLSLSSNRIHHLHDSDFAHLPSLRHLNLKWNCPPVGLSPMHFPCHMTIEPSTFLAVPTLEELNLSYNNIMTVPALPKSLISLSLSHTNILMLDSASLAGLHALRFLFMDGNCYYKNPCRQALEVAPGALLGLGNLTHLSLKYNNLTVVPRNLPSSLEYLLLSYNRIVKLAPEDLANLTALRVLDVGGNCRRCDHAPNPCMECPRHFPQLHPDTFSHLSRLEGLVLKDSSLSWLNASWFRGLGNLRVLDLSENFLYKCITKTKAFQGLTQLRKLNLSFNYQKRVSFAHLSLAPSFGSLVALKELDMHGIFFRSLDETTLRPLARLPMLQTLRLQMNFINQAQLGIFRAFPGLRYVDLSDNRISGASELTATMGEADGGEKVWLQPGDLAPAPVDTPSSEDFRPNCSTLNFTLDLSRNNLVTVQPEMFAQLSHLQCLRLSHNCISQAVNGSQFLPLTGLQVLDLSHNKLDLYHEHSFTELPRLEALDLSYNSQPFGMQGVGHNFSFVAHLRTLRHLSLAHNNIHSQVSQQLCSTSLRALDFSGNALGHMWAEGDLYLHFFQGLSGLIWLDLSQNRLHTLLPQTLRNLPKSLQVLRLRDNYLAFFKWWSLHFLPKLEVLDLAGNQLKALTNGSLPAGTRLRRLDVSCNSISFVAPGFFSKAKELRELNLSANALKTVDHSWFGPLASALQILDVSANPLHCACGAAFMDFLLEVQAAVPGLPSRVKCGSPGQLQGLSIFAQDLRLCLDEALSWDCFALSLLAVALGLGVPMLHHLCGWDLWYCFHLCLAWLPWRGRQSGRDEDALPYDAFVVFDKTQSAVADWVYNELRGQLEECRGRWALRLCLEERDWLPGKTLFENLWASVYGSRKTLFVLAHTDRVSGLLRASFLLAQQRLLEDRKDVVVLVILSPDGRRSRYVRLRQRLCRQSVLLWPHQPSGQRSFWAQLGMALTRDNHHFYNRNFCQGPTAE

[1] = Human microsome stability assay; format: in vitro ADME; conditions: 1 μM test compound, 0.5 mg/mL liver microsomal protein, 37° C.
Protocol: Human microsome stability assay
The human microsomal stability assay is used for early assessment of metabolic stability of a test compound in human liver microsomes.
Human liver microsomes (Cat.NO.: 452117, Corning, USA;Cat.NO.:H2610, Xenotech, USA) were preincubated with test compound for 10 minutes at 37° C. in 100 mM potassium phosphate buffer, pH 7.4. The reactions were initiated by adding NADPH regenerating system. The final incubation mixtures contained 1 μM test compound, 0.5 mg/mL liver microsomal protein, 1 mM MgCl2, 1 mM NADP, 1 unit/mL isocitric dehydrogenase and 6 mM isocitric acid in 100 mM potassium phosphate buffer, pH 7.4. After incubation times of 0, 3, 6, 9, 15 and 30 minutes at 37° C., 300 μL of cold acetonitrile (including internal standard) was added to 100 μL incubation mixture to terminate the reaction. Following precipitation and centrifugation, the amount of compound remaining in the samples were determined by LC-MS/MS. Controls of no NADPH regenerating system at zero and 30 minutes were also prepared and analyzed.

CYP2D6 = molecular target: T3, CYP2D6 (Homo sapiens, UniProt P10635); assay: CYP inhibition assay in human liver microsome; format: in vitro ADME; conditions: human liver microsomes, probe dextromethorphan, dextromethorphan substrate, percentage inhibition <0: not or weak inhibitor, read-out: CYP 2D6 inhibition %@10 μM
T3 construct: tissue BD-Gentest 452117; host or cells: human liver microsomes
T3 sequence (P10635 whole entry): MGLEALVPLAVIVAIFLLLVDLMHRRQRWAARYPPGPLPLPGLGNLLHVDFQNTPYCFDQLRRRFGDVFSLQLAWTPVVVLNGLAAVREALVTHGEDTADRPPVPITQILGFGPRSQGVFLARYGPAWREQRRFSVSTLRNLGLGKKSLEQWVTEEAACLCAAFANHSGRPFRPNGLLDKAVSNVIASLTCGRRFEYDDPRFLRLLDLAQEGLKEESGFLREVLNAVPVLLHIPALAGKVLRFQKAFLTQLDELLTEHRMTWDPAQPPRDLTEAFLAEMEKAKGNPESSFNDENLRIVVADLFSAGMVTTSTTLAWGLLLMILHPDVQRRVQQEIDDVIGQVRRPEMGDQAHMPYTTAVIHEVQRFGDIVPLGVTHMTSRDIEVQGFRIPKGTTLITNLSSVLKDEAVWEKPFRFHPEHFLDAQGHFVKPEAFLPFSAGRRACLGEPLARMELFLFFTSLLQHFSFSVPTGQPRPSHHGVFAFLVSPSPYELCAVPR
Protocol: The compounds would be desirable to have minimal DDI liabilities. Therefore, the effects of compounds of formula (I) or (Ia) on CYP2D6 are determined.
This is a high throughput screening assay used for assessment of reversible inhibition of CYP2D6 activity of test compounds in human liver microsome (HLM) in early discovery stage.
10 mM DMSO stock solutions of test compounds were diluted in DMSO to generate 2 mM intermediate stock solution. 250 nL of intermediate stock solution were transferred in duplicate into 3 separate 384 well microtitre plates (assay-ready plates). A mixture of HLM and each substrate was made up. 45 μL of HLM substrate mix was then transferred to each well of an assay ready plate and mixed. The negative (solvent) and positive control (standard inhibitor for CYP 2D6) were included in each assay ready plate. The assay ready plate was warmed to 37° C. in an incubator over 10 minutes. 5 μL pre-warmed NADPH regenerating system was added to each incubation well to start the reaction. Final incubation volume was 50 μL. The assay plate then was placed back in the 37° C. incubator. After 10 minutes incubation, incubates were quenched by addition of 50 μL 100% acetonitrile containing internal standards (20 ng/mL D3-Dextrorphan). The supernatants were collected for RapidFire/MS/MS analysis.
RapidFire online solid phase extraction/sample injection system (Agilent) coupled with API4000 triple quadrupole mass spectrometer (AB Sciex) were used for sample analysis. The mobile phase composed of acetonitrile and water supplemented with 0.1% formic acid. A C4 solid phase extraction cartridge is used for sample separation. MS detection is achieved in positive ion MRM mode.
Data analysis Peak areas for substrate, metabolite and internal standard are determined using the RapidFire integrator software (version 3.6.12009.12296). Peak area ratios (PAR) of metabolite and internal standard (stable-labelled metabolite) are then calculated. The measurement window for each experiment is then defined:
PAR (0% activity), average PAR for all incubations containing concentrated inhibitor; Par (100% activity), average PAR for all incubations containing no inhibitor (DMSO controls);
% Activity (test inhibitor)=
=[PAR(test inhibitor)-PAR(0% activity)]/[PAR(100% activity)-PAR(0% activity)];
% Inhibition (test inhibitor)=100-% Activity (test inhibitor).

Compound: C[C@@H]1CN(c2ccc(C#N)c3ncccc23)C[C@H](CN2CCN(c3ccccc3)CC2)O1 [ER-887258, reference compound]
- hERG IC20/TLR7 IC50 (hERG channel): 8.1
- hERG IC20/TLR9 IC50 (hERG channel): 0.3
- pIC50 (hTLR9): < 5.70

Compound: C[C@@H]1CN(c2ccc(C#N)c3ncccc23)C[C@H](CN2CCN(c3ccccn3)CC2)O1 [ER-888285, reference compound]
- hERG IC20/TLR7 IC50 (hERG channel): 8.4
- hERG IC20/TLR9 IC50 (hERG channel): 0.5
- pIC50 (hTLR9): < 5.70

Compound: C[C@@H]1CN(c2ccc(C#N)c3ncccc23)C[C@H](CN2CCN(c3ccncc3)CC2)O1 [ER-888286, reference compound]
- hERG IC20/TLR7 IC50 (hERG channel): 0.3
- hERG IC20/TLR9 IC50 (hERG channel): 0.2
- pIC50 (hTLR9): < 5.70

Compound: C[C@@H]1CN(c2ccc(C#N)c3ncccc23)C[C@H](CN2CC(NS(=O)(=O)c3ccc(F)cc3)C2)O1 [ER-894155]
- pIC50 (hTLR9): < 5.00

Compound: Cc1nn(C)cc1S(=O)(=O)NC1CCN(C[C@H]2CN(c3ccc(C#N)c4ncccc34)C[C@@H](C)O2)CC1 [ER-894160]
- pIC50 (hTLR9): < 5.00

Compound: C[C@@H]1CN(c2ccc(C#N)c3ncccc23)C[C@H](CN2CC[C@@H](NC(=O)c3ccccc3)C2)O1 [ER-894544]
- pIC50 (hTLR9): < 5.21

Compound: Cc1cc(N2CC[C@H](NC[C@H]3CN(c4ccc(C#N)c5ncccc45)C[C@@H](C)O3)[C@@H](O)C2)cc(CO)n1 [Example 26]
- Clearance of Human microsome [1]: 7.72 mL/min/kg

Compound: Cc1cc(N2CC[C@@H](O)[C@H](NC[C@H]3CN(c4ccc(C#N)c5ncccc45)C[C@@H](C)O3)C2)cc(CO)n1 [Example 27]
- Clearance of Human microsome [1]: 7.67 mL/min/kg

Compound: Cc1cc(N2C[C@@H](O)[C@H](NC[C@H]3CN(c4ccc(C#N)c5ncccc45)C[C@@H](C)O3)C2)cc(CO)n1 [Example 31]
- Clearance of Human microsome [1]: 7.61 mL/min/kg

Compound: Cc1cc(N2CCN(C[C@H]3CN(c4ccc(C#N)n5nccc45)C[C@@H](C)O3)C(Cc3ccccc3)C2)cc(C)n1 (some centres unmarked) [Example 39]
- inhibition at 10 min, 10 μM (CYP2D6): 7.5%

Compound: COc1ccc(N2CCN(C[C@H]3CN(c4ccc(C#N)c5ncccc45)C[C@@H](C)O3)CC2)cc1 [Example R1, 5-[(2S,6R)-2-[[4-(4-methoxyphenyl)piperazin-1-yl]methyl]-6-methyl-morpholin-4-yl]quinoline-8-carbonitrile, reference compound]
- hERG IC20/TLR7 IC50 (hERG channel): 9.3
- hERG IC20/TLR8 IC50 (hERG channel): 6.2
- hERG IC20/TLR9 IC50 (hERG channel): 0.1
- Clearance of Human microsome [1]: 10.84 mL/min/kg

Compound: C[C@@H]1CN(c2ccc(C#N)c3ncccc23)C[C@H](CN2CCN(c3ccc(Cl)cc3)CC2)O1 [Example R2, 5-[(2S,6R)-2-[[4-(4-chlorophenyl)piperazin-1-yl]methyl]-6-methyl-morpholin-4-yl]quinoline-8-carbonitrile, reference compound]
- hERG IC20/TLR7 IC50 (hERG channel): 1.3
- hERG IC20/TLR8 IC50 (hERG channel): 0.8
- hERG IC20/TLR9 IC50 (hERG channel): 0.0
